“And” between values parts separate entries of the source, which are not always exact repeats. Equal entries are not always repeated. Where two headings read alike, the source gives them in different places.
Key:
Ba/F3-EGFR L861Q cells = Ba/F3-EGFR L861Q cells (Homo sapiens, UniProt P00533, L861Q, cells depend on it); test: Ba/F3 cell survival assay, EGFR L861Q; type: cell-based; conditions: without IL-3, without EGF, 48 h; read-out: BA/F3 (EGFR L861Q) IC50
Procedure: (§1) 293T cells from ATCC were transfected with pBABEpuro expression constructs for mutant EGFR (V769_D770insASV, D770_N771insNPG, N771_P772insH, H773_V774insNPH, E746_A750del, L858R, D770_N771insSVD C797S, E746_A750del C797S, L858R C797S, L861Q) or mutant ERBB2 (A775_G776insYVMA) and pCL-Eco packaging vector using Fugene-6 transfection reagent from Promega. Plates were incubated at 37° C. for 48 h. Retrovirus was harvested by filtering the media supernatant through a 0.45 μm filter.
(§2) Ba/F3 cells purchased from DSMZ were grown in RPMI+10% FBS+10 ng/mL IL-3 and infected with filtered retroviral supernatant at a 1:2 dilution. Polybrene was added to a concentration of 8 μg/mL, plates were spun for 90 min, and incubated overnight at 37° C. 2 μg/mL puromycin was added to the infected cells 24 h after infection and cells were continually grown in the presence of puromycin and 10 ng/mL IL-3. Following stably expressing Ba/F3 cell lines were generated: Ba/F3-EGFR-V769_D770insASV, Ba/F3-EGFR-D770_N771insNPG, Ba/F3-EGFR-N771_P772insH, Ba/F3-EGFR-H773_V774insNPH, Ba/F3-EGFR-E746_A750del, Ba/F3-EGFR-L858R, Ba/F3-EGFR-D770_N771 insSVD C797S, Ba/F3-EGFR-E746_A750del C797S, Ba/F3-EGFR-L858R C797S, Ba/F3-EGFR L861Q and Ba/F3-ERBB2-A775_G776insYVMA (Ba/F3-vector-control).
(§3) For cell survival assays, Ba/F3 cells were grown to a density of 1-2 million cells per mL, spun down and resuspended in media without IL-3, and replated at a concentration 200,000-500,000 cells per mL. The cells ectopically expressing WT EGFR plated with 10 ng/mL Millipore Culture grade EGF and Ba/F3 cells containing mutant EGFR or Mutant ERBB2 were cultivated without EGF. The cells ectopically expressing pBABEpuro empty vector were plated with 10 ng/mL IL-3.
(§4) 2 days later, cells were plated in 50 μL in a 384 well plate at a concentration of 4000 cells per well for cells assayed in the absence of IL-3 and 2000 cells per well for cells assayed in the presence of IL-3. 100 nL of compound was added to each well using a 100 nL pin head, and plates were incubated at 37° C. for 48 h.
(§5) Cell viability was measured by adding 20 μL of Cell Titer-Glo Luminescent Cell Viability Reagent diluted 1:3 in PBS. Plates were sealed with Perkin Elmer Top-Seal, inverted several times to mix, and immediately centrifuged at 1000 rpm for 2 min. Plates were incubated in low light conditions for 8-10 min and luminescence was measured.

[1] = target: Ba/F3-EGFR-E746_A750del C797S cells (Homo sapiens, UniProt P00533, DEL746-750/C797S, cells depend on it); test: Ba/F3 cell survival assay, EGFR E746_A750del C797S; type: cell-based; conditions: without IL-3, without EGF, 48 h; read-out: BA/F3 (EGFR E746_A750del C797S) IC50
Chain of Ba/F3-EGFR-E746_A750del C797S cells (P00533 with tags, fused parts or gaps DEL746-750/C797S): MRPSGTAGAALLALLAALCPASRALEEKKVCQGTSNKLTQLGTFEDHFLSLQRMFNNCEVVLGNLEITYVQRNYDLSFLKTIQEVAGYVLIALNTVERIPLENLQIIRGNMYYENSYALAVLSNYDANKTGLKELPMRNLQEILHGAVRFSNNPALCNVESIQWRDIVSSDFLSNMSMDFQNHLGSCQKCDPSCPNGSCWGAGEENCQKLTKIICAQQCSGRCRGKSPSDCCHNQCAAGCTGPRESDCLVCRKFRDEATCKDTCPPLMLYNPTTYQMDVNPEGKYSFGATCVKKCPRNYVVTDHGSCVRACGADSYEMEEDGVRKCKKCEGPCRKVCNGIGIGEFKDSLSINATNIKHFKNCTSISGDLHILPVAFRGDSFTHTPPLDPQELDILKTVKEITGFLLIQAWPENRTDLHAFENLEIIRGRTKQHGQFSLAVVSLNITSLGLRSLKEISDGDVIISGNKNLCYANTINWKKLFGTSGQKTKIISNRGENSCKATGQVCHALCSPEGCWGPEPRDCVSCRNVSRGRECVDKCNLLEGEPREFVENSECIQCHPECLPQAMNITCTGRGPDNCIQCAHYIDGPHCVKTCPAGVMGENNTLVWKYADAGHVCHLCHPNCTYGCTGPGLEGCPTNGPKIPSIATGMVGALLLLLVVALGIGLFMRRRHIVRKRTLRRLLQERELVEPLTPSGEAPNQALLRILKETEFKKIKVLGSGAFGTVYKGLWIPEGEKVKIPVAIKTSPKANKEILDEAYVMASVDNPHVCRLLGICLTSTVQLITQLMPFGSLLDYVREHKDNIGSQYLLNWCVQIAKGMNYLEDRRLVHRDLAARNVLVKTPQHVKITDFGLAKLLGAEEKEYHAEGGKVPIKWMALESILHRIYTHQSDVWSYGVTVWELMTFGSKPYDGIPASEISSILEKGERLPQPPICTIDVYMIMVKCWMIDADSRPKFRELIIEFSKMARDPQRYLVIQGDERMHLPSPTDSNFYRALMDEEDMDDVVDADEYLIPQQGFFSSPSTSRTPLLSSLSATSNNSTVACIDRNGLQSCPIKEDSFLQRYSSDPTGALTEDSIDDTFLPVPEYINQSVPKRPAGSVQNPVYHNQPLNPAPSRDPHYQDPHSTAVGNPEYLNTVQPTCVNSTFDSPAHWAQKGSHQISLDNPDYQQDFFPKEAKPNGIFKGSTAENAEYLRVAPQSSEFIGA
Procedure: as §1, §2, §3, §4, §5

Bub1 = target: T1, Bub1 (Homo sapiens, UniProt O43683); test: Bub1 TR-FRET high ATP kinase assay; type: biochemical; conditions: 2 mM ATP
T1 construct: catalytic domain of human Bub1 (amino acids 704-1085); His6 (N); made in house; host or cells: Hi5 insect cells
T1 sequence (O43683 704-1085): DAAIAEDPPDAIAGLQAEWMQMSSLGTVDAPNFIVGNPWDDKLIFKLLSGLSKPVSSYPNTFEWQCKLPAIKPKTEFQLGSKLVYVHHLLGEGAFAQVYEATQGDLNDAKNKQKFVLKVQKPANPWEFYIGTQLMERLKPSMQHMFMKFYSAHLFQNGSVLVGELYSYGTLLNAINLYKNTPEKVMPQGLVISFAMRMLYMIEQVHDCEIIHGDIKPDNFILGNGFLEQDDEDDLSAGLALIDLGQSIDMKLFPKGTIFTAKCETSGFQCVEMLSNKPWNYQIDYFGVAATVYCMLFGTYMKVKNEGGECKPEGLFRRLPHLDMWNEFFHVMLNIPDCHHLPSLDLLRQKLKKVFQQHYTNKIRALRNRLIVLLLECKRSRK
Procedure, shortened: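 Recombinant His6-tagged human Bub1 catalytic domain (aa 704-1085), from Hi5 insect cells, phosphorylating a biotinylated peptide substrate at high ATP concentration. TR-FRET read-out.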

Ba/F3-EGFR-WT cells = Ba/F3-EGFR-WT cells (Homo sapiens, UniProt P00533); test: Ba/F3 cell survival assay (Cell Titer-Glo), WT EGFR; type: cell-based; conditions: without IL-3, with 10 ng/mL EGF, 48 h; read-out: BA/F3 (wild type) IC50
Chain of Ba/F3-EGFR-WT cells (P00533 whole entry, stated change not applied): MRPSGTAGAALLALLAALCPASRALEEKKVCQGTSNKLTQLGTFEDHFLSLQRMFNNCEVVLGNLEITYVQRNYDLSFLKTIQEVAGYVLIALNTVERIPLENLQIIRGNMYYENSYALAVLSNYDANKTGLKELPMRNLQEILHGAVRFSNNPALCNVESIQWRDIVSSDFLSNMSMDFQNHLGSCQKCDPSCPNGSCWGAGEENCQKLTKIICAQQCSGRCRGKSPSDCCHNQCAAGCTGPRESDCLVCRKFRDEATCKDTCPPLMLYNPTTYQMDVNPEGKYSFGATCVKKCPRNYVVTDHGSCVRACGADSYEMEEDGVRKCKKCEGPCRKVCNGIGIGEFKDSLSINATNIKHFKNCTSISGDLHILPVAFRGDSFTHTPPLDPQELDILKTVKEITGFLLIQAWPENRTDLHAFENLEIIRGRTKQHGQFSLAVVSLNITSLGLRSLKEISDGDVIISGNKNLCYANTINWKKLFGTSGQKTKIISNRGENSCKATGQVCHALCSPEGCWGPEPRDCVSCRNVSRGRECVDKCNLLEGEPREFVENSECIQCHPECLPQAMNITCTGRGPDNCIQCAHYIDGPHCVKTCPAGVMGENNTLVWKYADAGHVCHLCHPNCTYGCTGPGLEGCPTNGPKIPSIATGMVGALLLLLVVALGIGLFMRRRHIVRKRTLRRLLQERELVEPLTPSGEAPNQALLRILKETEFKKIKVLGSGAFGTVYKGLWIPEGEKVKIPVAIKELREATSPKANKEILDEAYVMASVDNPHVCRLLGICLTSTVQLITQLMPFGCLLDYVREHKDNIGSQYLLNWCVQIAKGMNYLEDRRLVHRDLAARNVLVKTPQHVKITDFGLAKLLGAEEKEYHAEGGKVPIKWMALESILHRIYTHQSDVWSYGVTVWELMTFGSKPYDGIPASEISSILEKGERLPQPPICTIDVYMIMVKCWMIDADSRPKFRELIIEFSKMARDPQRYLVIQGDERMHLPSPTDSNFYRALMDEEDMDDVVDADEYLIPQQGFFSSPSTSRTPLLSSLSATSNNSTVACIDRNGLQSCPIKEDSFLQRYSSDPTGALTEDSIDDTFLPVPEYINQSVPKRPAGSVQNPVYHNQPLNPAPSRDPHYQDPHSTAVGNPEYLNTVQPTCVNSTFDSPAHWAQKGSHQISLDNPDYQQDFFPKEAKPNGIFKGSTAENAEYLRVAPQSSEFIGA
Procedure, shortened: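 Ba/F3 cells stably expressing WT EGFR or EGFR-insSVD from retroviral transduction were grown without IL-3 on 10 ng/mL EGF. Cells were plated at 4000 cells/well, treated with compound for 48 h at 37° C, and viability was read by CellTiter-Glo luminescence.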

[2] = target: Ba/F3-ERBB2-A775_G776insYVMA cells (Homo sapiens, UniProt P04626, DUP772-775, cells depend on it); test: Ba/F3 cell survival assay, ERBB2 A775_G776insYVMA; type: cell-based; conditions: without IL-3, without EGF, 48 h; read-out: BA/F3 (ERBB2 A775_G776 insYVMA) IC50
Chain of Ba/F3-ERBB2-A775_G776insYVMA cells (P04626 with tags, fused parts or gaps DUP772-775): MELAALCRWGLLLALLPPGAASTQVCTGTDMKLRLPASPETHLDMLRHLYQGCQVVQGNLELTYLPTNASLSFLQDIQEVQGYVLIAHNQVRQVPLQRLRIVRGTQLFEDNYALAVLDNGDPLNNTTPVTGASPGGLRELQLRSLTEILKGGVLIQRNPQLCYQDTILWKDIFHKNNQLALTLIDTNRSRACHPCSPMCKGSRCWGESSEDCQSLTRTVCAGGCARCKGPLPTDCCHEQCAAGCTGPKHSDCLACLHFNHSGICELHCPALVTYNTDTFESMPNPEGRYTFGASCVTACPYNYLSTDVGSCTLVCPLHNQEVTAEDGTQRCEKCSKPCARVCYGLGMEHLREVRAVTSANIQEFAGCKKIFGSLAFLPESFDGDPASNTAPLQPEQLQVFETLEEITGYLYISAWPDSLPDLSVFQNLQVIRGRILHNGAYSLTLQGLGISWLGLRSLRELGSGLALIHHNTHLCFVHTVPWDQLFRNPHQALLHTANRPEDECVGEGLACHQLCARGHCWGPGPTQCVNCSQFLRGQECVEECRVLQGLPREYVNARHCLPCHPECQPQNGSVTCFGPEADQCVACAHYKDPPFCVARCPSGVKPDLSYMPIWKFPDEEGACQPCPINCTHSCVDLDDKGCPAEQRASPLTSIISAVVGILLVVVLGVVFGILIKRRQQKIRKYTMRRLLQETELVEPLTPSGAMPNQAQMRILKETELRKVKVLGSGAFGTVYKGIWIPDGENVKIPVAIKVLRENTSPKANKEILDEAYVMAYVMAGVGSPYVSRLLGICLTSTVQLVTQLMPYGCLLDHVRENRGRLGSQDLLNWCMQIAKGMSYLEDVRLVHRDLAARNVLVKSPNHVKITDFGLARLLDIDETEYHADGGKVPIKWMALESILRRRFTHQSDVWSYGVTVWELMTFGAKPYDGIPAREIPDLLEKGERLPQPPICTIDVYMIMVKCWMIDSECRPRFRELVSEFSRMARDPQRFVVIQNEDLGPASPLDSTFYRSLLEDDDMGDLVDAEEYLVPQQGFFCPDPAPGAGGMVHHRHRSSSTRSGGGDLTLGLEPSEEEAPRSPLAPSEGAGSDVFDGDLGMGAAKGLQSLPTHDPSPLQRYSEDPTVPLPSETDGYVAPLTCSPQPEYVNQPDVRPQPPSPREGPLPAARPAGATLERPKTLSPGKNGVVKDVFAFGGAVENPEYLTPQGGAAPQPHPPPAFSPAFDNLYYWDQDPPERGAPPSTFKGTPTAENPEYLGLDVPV
Procedure: as §1, §2, §3, §4, §5

[3] = Bub1 high ATP (2 mM) IC50 [mol/l]

IC50 (Bub1; [3])	IC50 (Bub1; read-out: Bub1 high ATP (2 mM) IC50 [mol/l])	SMILES	GI50 (Ba/F3-EGFR L861Q cells)	GI50 [1]	GI50 (Ba/F3-EGFR-WT cells)	GI50 [2]
6.04 µM		COc1c(Cl)cccc1Nc1c(-c2ccncc2OC[C@@H]2COCCO2)[nH]c2c1C(=O)NCC2 (single isomer, unassigned) [Example 2]	14.8 nM	0.22 nM	292 nM	8.31 nM
12.9 µM		COc1c(F)cccc1Nc1c(-c2ccncc2OCC2COCCO2)[nH]c2c1C(=O)NCC2 (single isomer, unassigned) [Example 5, 2-{3-[(1,4-dioxan-2-yl)methoxy]pyridin-4-yl}-3-(3-fluoro-2-methoxyanilino)-1,5,6,7-tetrahydro-4H-pyrrolo[3,2-c]pyridin-4-one]	30.9 nM	0.668 nM	262 nM	
7.88 µM		O=C1NCCc2[nH]c(-c3ccncc3OCC3COCCO3)c(Nc3cccc(Cl)c3Cl)c21 (single isomer, unassigned) [Example 8, 3-(2,3-dichloroanilino)-2-{3-[(1,4-dioxan-2-yl)methoxy]pyridin-4-yl}-1,5,6,7-tetrahydro-4H-pyrrolo[3,2-c]pyridin-4-one]	13.7 nM	0.247 nM	121 nM	13.1 nM
	> 20 µM	COc1c(F)cccc1Nc1c(-c2ccncc2OCC2CN(C)CCO2)[nH]c2c1C(=O)NCC2 (single isomer, unassigned) [Example 14, 3-(3-fluoro-2-methoxyanilino)-2-{3-[(4-methylmorpholin-2-yl)methoxy]pyridin-4-yl}-1,5,6,7-tetrahydro-4H-pyrrolo[3,2-c]pyridin-4-one]	20.1 nM	0.379 nM	387 nM	13.6 nM
		COc1c(Cl)cccc1Nc1c(-c2ccncc2OCC2COC(C)(C)CO2)[nH]c2c1C(=O)NCC2 (single isomer, unassigned) [Example 32, 3-(3-chloro-2-methoxyanilino)-2-{3-[(5,5-dimethyl-1,4-dioxan-2-yl)methoxy]pyridin-4-yl}-1,5,6,7-tetrahydro-4H-pyrrolo[3,2-c]pyridin-4-one]	17.4 nM	0.511 nM		16.7 nM
13 µM		Cc1c(Cl)cccc1Nc1c(-c2ccncc2OCC2COC(C)(C)CO2)[nH]c2c1C(=O)NCC2 (single isomer, unassigned) [Example 46, 3-(3-chloro-2-methyl-anilino)-2-[3-[(5,5-dimethyl-1,4-dioxan-2-yl)methoxy]-4-pyridyl]-1,5,6,7-tetrahydropyrrolo[3,2-c]pyridin-4-one]	15.8 nM		376 nM	11 nM
12.2 µM		Cc1c(F)cccc1Nc1c(-c2ccncc2OCC2COCCO2)[nH]c2c1C(=O)NCC2 (single isomer, unassigned) [Example 48, 2-[3-(1,4-dioxan-2-ylmethoxy)-4-pyridyl]-3-(3-fluoro-2-methyl-anilino)-1,5,6,7-tetrahydropyrrolo[3,2-c]pyridin-4-one]	39.7 nM	0.4 nM and 0.776 nM	379 nM	39.8 nM
3.54 µM		Cc1c(Cl)cccc1Nc1c(-c2ccncc2OC[C@H]2COCCO2)[nH]c2c1C(=O)NCC2 (single isomer, unassigned) [Example 50]	24 nM	0.348 nM	361 nM	10.3 nM
9.53 µM		COc1c(F)cccc1Nc1c(-c2ccncc2OC[C@@H]2COCCN2C)[nH]c2c1C(=O)NCC2 [Example 20, 3-(3-fluoro-2-methoxyanilino)-2-(3-{[(3S)-4-methylmorpholin-3-yl]methoxy}pyridin-4-yl)-1,5,6,7-tetrahydro-4H-pyrrolo[3,2-c]pyridin-4-one]		0.349 nM	313 nM	23.5 nM
3.79 µM		COc1c(Cl)cccc1Nc1c(-c2ccncc2OC[C@@H]2COCCN2C)[nH]c2c1C(=O)NCC2 [Example 21, 3-(3-chloro-2-methoxyanilino)-2-(3-{[(3S)-4-methylmorpholin-3-yl]methoxy}pyridin-4-yl)-1,5,6,7-tetrahydro-4H-pyrrolo[3,2-c]pyridin-4-one]	7.34 nM	0.259 nM	341 nM	13.4 nM
> 20 µM		Cc1c(Cl)cccc1Nc1c(-c2ccncc2OC[C@@H]2CN(C)CCO2)[nH]c2c1C(=O)NCC2 [Example 42, 3-(3-chloro-2-methylanilino)-2-(3-{[(2S)-4-methylmorpholin-2-yl]methoxy}pyridin-4-yl)-1,5,6,7-tetrahydro-4H-pyrrolo[3,2-c]pyridin-4-one]	18.8 nM	0.494 nM	596 nM	13.2 nM
16.5 µM		CCc1c(Cl)cccc1Nc1c(-c2ccncc2OC[C@@H]2CN(C)CCO2)[nH]c2c1C(=O)NCC2 [Example 56, 3-(3-chloro-2-ethylanilino)-2-(3-{[(2S)-4-methylmorpholin-2-yl]methoxy}pyridin-4-yl)-1,5,6,7-tetrahydro-4H-pyrrolo[3,2-c]pyridin-4-one]	29.5 nM	0.423 nM	435 nM	13.5 nM

Source: US12679836B2, “4H-pyrrolo[3,2-c]pyridin-4-one compounds” (Bayer Aktiengesellschaft, priority 2019, dated 2026)
